Experimental data reported in PubChem BioAssay AID328 (DTP/NCI, 2004).
Where “and” joins values, the source holds several entries; their conditions need not be identical. Identical values can stand only once. Inconclusive results and toxic doses are left out.

System: BDF1 mice, P388 leukemia ip, median survival T/C
Experiment: NCI In Vivo Anticancer Drug Screen. Data for tumor model P388 Leukemia (intraperitoneal) in B6D2F1 (BDF1) mice
Conditions: endpoint: median survival time, higher = longer survival
Method in brief: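 Transplantable tumour in mice; compound vs vehicle dosing; survival scored; ratio of treated to control reported.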

[1] = dose: 12.5 mg/kg/injection, schedule: Q04DX003 (ip), vehicle: saline
[2] = dose: 25.0 mg/kg/injection, schedule: Q04DX003 (ip), vehicle: saline
[3] = dose: 50.0 mg/kg/injection, schedule: Q01DX009 (ip), vehicle: saline
[4] = dose: 50.0 mg/kg/injection, schedule: Q04DX003 (ip), vehicle: saline
[5] = dose: 100.0 mg/kg/injection, schedule: Q01DX009 (ip), vehicle: saline
[6] = dose: 6.25 mg/kg/injection, schedule: Q01DX009 (ip), vehicle: saline with Tween-80
[7] = dose: 100.0 mg/kg/injection, schedule: Q04DX003 (ip), vehicle: saline
[8] = dose: 50.0 mg/kg/injection, schedule: Q04DX003 (ip), vehicle: saline with Tween-80
[9] = dose: 25.0 mg/kg/injection, schedule: Q01DX009 (ip), vehicle: saline with Tween-80
[10] = dose: 50.0 mg/kg/injection, schedule: Q01DX009 (ip), vehicle: saline with Tween-80
[11] = dose: 100.0 mg/kg/injection, schedule: Q01DX009 (ip), vehicle: saline with Tween-80
[12] = dose: 100.0 mg/kg/injection, schedule: Q04DX003 (ip), vehicle: saline with Tween-80
[13] = dose: 200.0 mg/kg/injection, schedule: Q04DX003 (ip), vehicle: saline with Tween-80
[14] = dose: 200.0 mg/kg/injection, schedule: Q01DX009 (ip), vehicle: saline with Tween-80

Compound: N[C@H](C(=O)O)[C@H]1ON=C(Cl)[C@@H]1O
- T/C (dose: 0.5 mg/kg/injection, schedule: Q01DX009 (ip), vehicle: saline with Tween-80): 105 % of control
- T/C (dose: 1.0 mg/kg/injection, schedule: Q01DX009 (ip), vehicle: saline with Tween-80): 105 % of control
- T/C (dose: 2.0 mg/kg/injection, schedule: Q01DX009 (ip), vehicle: saline with Tween-80): 117 % of control
- T/C (dose: 6.25 mg/kg/injection, schedule: Q01DX009 (ip), vehicle: saline): 160 % of control
- T/C (dose: 8.0 mg/kg/injection, schedule: Q01DX009 (ip), vehicle: saline): 160 % of control
- T/C (dose: 12.5 mg/kg/injection, schedule: Q01DX009 (ip), vehicle: Klucel (hydroxypropylcellulose) (HPC)): 239 % of control
- T/C (dose: 12.5 mg/kg/injection, schedule: Q01DX009 (ip), vehicle: saline): 165 % of control
- T/C [1]: 96 % of control
- T/C (dose: 16.0 mg/kg/injection, schedule: Q01DX009 (ip), vehicle: saline): 168 % of control
- T/C (dose: 25.0 mg/kg/injection, schedule: Q01DX009 (ip), vehicle: Klucel (hydroxypropylcellulose) (HPC)): 195 % of control
- T/C (dose: 25.0 mg/kg/injection, schedule: Q01DX009 (ip), vehicle: saline): 195 % of control
- T/C [2]: 111 % of control
- T/C (dose: 32.0 mg/kg/injection, schedule: Q01DX009 (ip), vehicle: saline): 167 % of control
- T/C (dose: 44.0 mg/kg/injection, schedule: Q01DX009 (ip), vehicle: other): 158 % of control
- T/C (dose: 50.0 mg/kg/injection, schedule: Q01DX009 (ip), vehicle: Klucel (hydroxypropylcellulose) (HPC)): 188 % of control
- T/C [3]: 215 % of control
- T/C [4]: 111 % of control
- T/C (dose: 64.0 mg/kg/injection, schedule: Q01DX009 (ip), vehicle: saline): 193 % of control
- T/C (dose: 100.0 mg/kg/injection, schedule: Q01DX009 (ip), vehicle: Klucel (hydroxypropylcellulose) (HPC)): 206 % of control
- T/C (dose: 100.0 mg/kg/injection, schedule: Q01DX009 (ip), vehicle: other): 170 % of control
- T/C [5]: 110 % of control
- T/C (dose: 128.0 mg/kg/injection, schedule: Q01DX009 (ip), vehicle: saline): 228 % of control
- T/C (dose: 200.0 mg/kg/injection, schedule: Q01DX009 (ip), vehicle: saline): 90 % of control
- T/C (dose: 250.0 mg/kg/injection, schedule: Q01DX009 (ip), vehicle: saline): 192 % of control
- T/C (dose: 256.0 mg/kg/injection, schedule: Q01DX009 (ip), vehicle: saline): 270 % of control
- T/C (dose: 400.0 mg/kg/injection, schedule: Q04DX003 (ip), vehicle: saline): 238 % of control

Compound: O=C(Nc1cccc(Cl)c1Cl)SCCSC(=O)Nc1cccc(Cl)c1Cl
- T/C (dose: 12.5 mg/kg/injection, schedule: Q01DX009 (ip), vehicle: gum acacia): 118 % of control
- T/C (dose: 25.0 mg/kg/injection, schedule: Q01DX009 (ip), vehicle: gum acacia): 100 % of control
- T/C (dose: 50.0 mg/kg/injection, schedule: Q01DX009 (ip), vehicle: gum acacia): 118 % of control

Compound: CC(C)(C)C[CH2][Hg][Cl]
- T/C (dose: 3.13 mg/kg/injection, schedule: Q04DX003 (ip), vehicle: saline): 105 % of control
- T/C (dose: 6.25 mg/kg/injection, schedule: Q04DX003 (ip), vehicle: saline): 100 % of control
- T/C (dose: 8.25 mg/kg/injection, schedule: Q04DX003 (ip), vehicle: saline sonified): 109 % of control
- T/C (dose: 12.5 mg/kg/injection, schedule: Q04DX003 (ip), vehicle: saline sonified): 113 % of control
- T/C (dose: 18.75 mg/kg/injection, schedule: Q04DX003 (ip), vehicle: saline sonified): 100 % of control

Compound: CC(=O)OC(C)C1C2=C(C(=O)CC1(C)O)C(=O)c1c(ccc(-c3ccc4c(c3O)C(=O)C3=C(C4=O)C(C(C)OC(C)=O)C(C)(O)CC3=O)c1O)C2=O (stereo not given)
- T/C [6]: 122 % of control

Compound: COc1ccc(CC2Cc3cc(OC)c(OC)cc3C=N2)cc1OC (stereo not given)
- T/C [3]: 96 % of control
- T/C [5]: 107 % of control
- T/C [7]: 103 % of control
- T/C (dose: 200.0 mg/kg/injection, schedule: Q04DX003 (ip), vehicle: saline): 111 % of control

Compound: CSc1nc(NN(C)C)c2[nH]c(C)nc2n1
- T/C (dose: 0.78 mg/kg/injection, schedule: Q01DX009 (ip), vehicle: saline with Tween-80): 97 % of control
- T/C (dose: 1.56 mg/kg/injection, schedule: Q01DX009 (ip), vehicle: saline with Tween-80): 116 % of control
- T/C (dose: 3.13 mg/kg/injection, schedule: Q01DX009 (ip), vehicle: saline with Tween-80): 111 % of control
- T/C [6]: 87 % of control

Compound: O=C(Nc1ccc(NC(=O)c2ccc(C3=NCCCN3)cc2)cc1)c1ccc(C2=NCCCN2)cc1
- T/C (dose: 33.0 mg/kg/injection, schedule: Q04DX003 (ip), vehicle: saline with Tween-80): 159 % of control
- T/C [8]: 153 % of control and 181 % of control
- T/C (dose: 75.0 mg/kg/injection, schedule: Q04DX003 (ip), vehicle: saline with Tween-80): 168 % of control and 207 % of control

Compound: CCCC(C)(C)SSC(C)(C)CCC
- T/C [9]: 90 % of control
- T/C [10]: 90 % of control and 100 % of control
- T/C [11]: 95 % of control and 118 % of control
- T/C [12]: 90 % of control
- T/C [13]: 113 % of control

Compound: O=S(=O)(/N=C1C=C/C(=N\S(=O)(=O)c2ccccc2)C(Sc2ccccc2)=C\1)c1ccccc1
- T/C (dose: 50.0 mg/kg/injection, schedule: Q01DX001 (ip), vehicle: saline with Tween-80): 104 % of control
- T/C (dose: 100.0 mg/kg/injection, schedule: Q01DX001 (ip), vehicle: saline with Tween-80): 90 % of control
- T/C (dose: 200.0 mg/kg/injection, schedule: Q01DX001 (ip), vehicle: saline with Tween-80): 122 % of control

Compound: CCCCOCN(COCCCC)c1ccccc1Cl
- T/C [10]: 116 % of control
- T/C [11]: 107 % of control and 121 % of control

Compound: O=[N+]([O-])c1ccc(C[Se]c2ncnc3c2ncn3C2OC(CO)C(O)C2O)cc1 (stereo not given)
- T/C [1]: 109 % of control
- T/C [2]: 103 % of control
- T/C [4]: 96 % of control
- T/C [7]: 105 % of control

Compound: O=C1C(N2CCOCC2)=Cc2cccc3cccc1c23
- T/C [8]: 99 % of control
- T/C [11]: 101 % of control
- T/C [12]: 96 % of control
- T/C [14]: 90 % of control
- T/C [13]: 88 % of control
- T/C (dose: 400.0 mg/kg/injection, schedule: Q04DX003 (ip), vehicle: saline with Tween-80): 99 % of control

Compound: CC(C)Cc1c(N)nc(=O)[nH]c1C(=O)O
- T/C (dose: 50.0 mg/kg/injection, schedule: Q04DX003 (ip), vehicle: Klucel (hydroxypropylcellulose) (HPC)): 109 % of control
- T/C (dose: 100.0 mg/kg/injection, schedule: Q04DX003 (ip), vehicle: Klucel (hydroxypropylcellulose) (HPC)): 95 % of control
- T/C (dose: 200.0 mg/kg/injection, schedule: Q04DX003 (ip), vehicle: Klucel (hydroxypropylcellulose) (HPC)): 100 % of control

Compound: COc1cc(C=O)cc(I)c1O
- T/C (dose: 12.5 mg/kg/injection, schedule: Q01DX009 (ip), vehicle: saline sonified): 105 % of control
- T/C (dose: 12.5 mg/kg/injection, schedule: Q04DX003 (ip), vehicle: saline with Tween-80): 86 % of control
- T/C (dose: 25.0 mg/kg/injection, schedule: Q01DX009 (ip), vehicle: saline sonified): 94 % of control
- T/C (dose: 25.0 mg/kg/injection, schedule: Q04DX003 (ip), vehicle: saline with Tween-80): 90 % of control
- T/C (dose: 50.0 mg/kg/injection, schedule: Q01DX009 (ip), vehicle: saline sonified): 100 % of control
- T/C [8]: 100 % of control

Compound: COc1ccc(-c2oc3cc(O)cc(O)c3c(=O)c2OC)cc1O
- T/C (dose: 10.0 mg/kg/injection, schedule: Q01DX010 (ip), vehicle: saline): 100 % of control
- T/C (dose: 20.0 mg/kg/injection, schedule: Q01DX010 (ip), vehicle: saline): 100 % of control
- T/C (dose: 40.0 mg/kg/injection, schedule: Q01DX010 (ip), vehicle: saline): 109 % of control

Compound: O=C(NC(=O)c1c(F)cccc1F)Nc1ncc(Br)cc1Br
- T/C [9]: 90 % of control
- T/C [10]: 97 % of control
- T/C [11]: 96 % of control

Compound: [N-]=[N+]=[N-]
- T/C (dose: 2.5 mg/kg/injection, schedule: Q01DX009 (ip), vehicle: saline): 90 % of control
- T/C (dose: 5.0 mg/kg/injection, schedule: Q01DX009 (ip), vehicle: saline): 90 % of control
- T/C (dose: 5.0 mg/kg/injection, schedule: Q04DX003 (ip), vehicle: saline): 112 % of control
- T/C (dose: 10.0 mg/kg/injection, schedule: Q04DX003 (ip), vehicle: saline): 95 % of control

Compound: COC(=O)C1=C(C)NC(C)=C(C(=O)OC)C(N2C(=O)CCC2=O)C1 (stereo not given)
- T/C (dose: 12.5 mg/kg/injection, schedule: Q01DX009 (ip), vehicle: saline with Tween-80): 97 % of control
- T/C [9]: 94 % of control
- T/C [10]: 95 % of control and 123 % of control
- T/C [11]: 94 % of control and 107 % of control
- T/C [14]: 107 % of control
